ChEMBL document CHEMBL3046746, “Introduction to Receptors in Aging Diseases: GABA Receptors” (Med Chem Res, 2004)
Calls of active or inactive are those of the source. The rule behind the calls is not given here.

Key:
[1] = biological target: Gamma-aminobutyric acid receptor subunit alpha-3/ beta-3/gamma-3 (Homo sapiens) (UniProt P28472+Q99928+P34903); assay: Antagonist activity at GABAA alpha3beta3gamma3 in Homo sapiens (human) L(tk-) cells relative to GABA
[2] = biological target: T1, GABA-A receptor; alpha-5/beta-3/gamma-2 (Homo sapiens, UniProt P18507+P28472+P31644); assay: Inverse agonist activity at GABAA alpha5beta3gamma2 in Homo sapiens (human) L(tk-) cells by patch clamp assay
T1 sequence (P18507 whole entry): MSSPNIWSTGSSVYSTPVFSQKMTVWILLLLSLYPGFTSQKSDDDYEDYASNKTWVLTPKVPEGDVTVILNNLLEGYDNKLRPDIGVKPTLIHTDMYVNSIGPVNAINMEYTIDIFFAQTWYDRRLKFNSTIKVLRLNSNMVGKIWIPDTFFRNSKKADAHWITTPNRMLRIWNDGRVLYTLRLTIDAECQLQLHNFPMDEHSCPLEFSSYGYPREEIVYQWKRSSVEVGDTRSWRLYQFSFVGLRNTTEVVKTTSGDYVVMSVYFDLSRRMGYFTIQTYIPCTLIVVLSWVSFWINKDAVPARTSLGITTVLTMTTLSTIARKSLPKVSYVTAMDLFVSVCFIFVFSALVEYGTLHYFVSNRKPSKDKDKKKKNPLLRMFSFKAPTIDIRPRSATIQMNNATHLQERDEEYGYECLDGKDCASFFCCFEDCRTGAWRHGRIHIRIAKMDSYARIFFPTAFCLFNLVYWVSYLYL
T1 sequence (P28472 whole entry): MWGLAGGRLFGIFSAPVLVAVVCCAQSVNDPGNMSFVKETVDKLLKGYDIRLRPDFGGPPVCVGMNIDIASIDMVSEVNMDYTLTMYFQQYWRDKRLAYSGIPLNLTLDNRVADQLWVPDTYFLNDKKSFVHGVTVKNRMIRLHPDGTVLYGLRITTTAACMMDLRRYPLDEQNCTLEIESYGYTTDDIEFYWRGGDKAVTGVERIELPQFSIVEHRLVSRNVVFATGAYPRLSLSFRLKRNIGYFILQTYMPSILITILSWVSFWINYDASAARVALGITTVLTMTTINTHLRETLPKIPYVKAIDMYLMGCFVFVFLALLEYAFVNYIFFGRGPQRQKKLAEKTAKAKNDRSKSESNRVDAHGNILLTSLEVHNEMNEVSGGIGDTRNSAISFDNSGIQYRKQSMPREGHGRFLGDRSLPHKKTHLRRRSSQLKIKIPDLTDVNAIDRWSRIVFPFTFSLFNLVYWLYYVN
T1 sequence (P31644 whole entry): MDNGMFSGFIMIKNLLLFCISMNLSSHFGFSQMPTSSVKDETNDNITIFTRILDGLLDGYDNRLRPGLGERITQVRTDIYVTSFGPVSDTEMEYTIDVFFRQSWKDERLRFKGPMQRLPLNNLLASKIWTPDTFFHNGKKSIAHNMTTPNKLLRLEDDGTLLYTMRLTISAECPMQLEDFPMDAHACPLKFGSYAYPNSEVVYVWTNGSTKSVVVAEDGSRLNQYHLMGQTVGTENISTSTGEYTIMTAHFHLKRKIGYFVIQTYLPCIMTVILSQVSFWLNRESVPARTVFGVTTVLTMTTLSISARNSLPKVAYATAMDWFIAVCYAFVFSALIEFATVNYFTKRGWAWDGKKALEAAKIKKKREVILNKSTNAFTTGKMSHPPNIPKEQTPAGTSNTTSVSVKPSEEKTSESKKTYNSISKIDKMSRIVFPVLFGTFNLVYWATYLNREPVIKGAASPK

[3] = biological target: GABA-A receptor; alpha-1/beta-3/gamma-2 (Homo sapiens) (UniProt P14867+P18507+P28472); assay: Modulation of GABA-Aalpha1beta3gamma2 in Homo sapiens (human) L(tk-) cells relative to GABA
Homo sapiens [4] = species on record: Homo sapiens; assay: Selectivity ratio of Ki for GABAA alpha2beta3gamma2 (unknown origin) to Ki for GABAA alpha5beta3gamma2 (unknown origin)
Homo sapiens [5] = species on record: Homo sapiens; assay: Selectivity ratio of Ki for GABA-Aalpha1beta3gamma2 (unknown origin) to Ki for GABAA alpha5beta3gamma2 (unknown origin)
[6] = biological target: GABA-A receptor; alpha-2/beta-3/gamma-2 (Homo sapiens) (UniProt P18507+P28472+P47869); assay: Antagonist activity at GABAA alpha2beta3gamma2 in Homo sapiens (human) L(tk-) cells by patch clamp assay relative to GABA
Rattus norvegicus [7] = assay: Cognitive enhancing effect in Rattus norvegicus (rat) at 0.3 mg/kg, ip by water maze test; format: functional, organism-based; set-up: dose 0.3 mg/kg
[8] = biological target: T2, Gamma-aminobutyric acid receptor subunit alpha-3/ beta-3/gamma-3 (Homo sapiens, UniProt P28472+P34903+Q99928); assay: Binding affinity to GABAA alpha3beta3gamma3 (unknown origin); format: protein-complex assay
T2 sequence (P28472 whole entry): T1 sequence (P28472 whole entry)
T2 sequence (Q99928 whole entry): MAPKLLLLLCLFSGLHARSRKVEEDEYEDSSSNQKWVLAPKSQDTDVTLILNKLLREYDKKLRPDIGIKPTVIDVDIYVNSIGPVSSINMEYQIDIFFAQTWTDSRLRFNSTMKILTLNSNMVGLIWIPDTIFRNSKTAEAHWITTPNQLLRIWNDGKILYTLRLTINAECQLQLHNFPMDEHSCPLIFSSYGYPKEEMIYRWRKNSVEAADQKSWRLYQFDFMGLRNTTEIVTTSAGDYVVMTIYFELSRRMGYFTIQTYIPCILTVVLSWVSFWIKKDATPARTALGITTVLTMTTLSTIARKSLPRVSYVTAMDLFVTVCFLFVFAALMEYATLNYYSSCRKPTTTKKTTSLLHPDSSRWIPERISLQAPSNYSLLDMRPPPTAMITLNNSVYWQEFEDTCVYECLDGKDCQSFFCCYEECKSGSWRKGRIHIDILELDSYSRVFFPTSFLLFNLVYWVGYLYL
T2 sequence (P34903 whole entry): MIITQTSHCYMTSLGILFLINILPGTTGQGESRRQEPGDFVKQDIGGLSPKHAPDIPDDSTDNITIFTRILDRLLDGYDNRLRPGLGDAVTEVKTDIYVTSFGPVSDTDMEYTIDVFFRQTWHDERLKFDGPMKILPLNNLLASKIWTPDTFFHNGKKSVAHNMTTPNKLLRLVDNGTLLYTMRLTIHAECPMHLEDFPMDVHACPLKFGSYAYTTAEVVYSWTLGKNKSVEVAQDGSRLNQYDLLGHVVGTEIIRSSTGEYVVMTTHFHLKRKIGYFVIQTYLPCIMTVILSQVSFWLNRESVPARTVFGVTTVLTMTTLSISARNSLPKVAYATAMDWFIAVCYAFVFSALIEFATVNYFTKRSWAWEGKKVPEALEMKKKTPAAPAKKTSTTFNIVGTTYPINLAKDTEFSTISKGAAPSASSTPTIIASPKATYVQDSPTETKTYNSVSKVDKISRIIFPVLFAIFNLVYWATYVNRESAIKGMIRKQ

Homo sapiens [9] = species on record: Homo sapiens; assay: Selectivity ratio of Ki for GABAA alpha3beta3gamma3 (unknown origin) to Ki for GABAA alpha5beta3gamma2 (unknown origin)
[10] = biological target: GABA-A receptor; alpha-5/beta-3/gamma-2 (Homo sapiens) (UniProt P18507+P28472+P31644); assay: Modulation of GABAA alpha5beta3gamma2 in Homo sapiens (human) L(tk-) cells patch clamp assay relative to GABA
Rattus norvegicus [11] = assay: In vivo GABAA alpha5beta3gamma2 receptor occupancy in Rattus norvegicus (rat) assessed as inhibition of [3H]L-655,708 binding at 0.3 mg/kg, ip; format: functional; conditions: route intraperitoneal

With `CC1(C)CC(=O)c2c(SCCO)sc(-c3nccs3)c2C1` the Activity [1] was “Active”, the EC50 [2] was 0.7 nM and the Efficacy [3] was -21%. For the same compound, the Ratio Ki (Homo sapiens [4]) was 10, the Ratio Ki (Homo sapiens [5]) was 10 and the Activity [6] was “Active”. The Activity (Rattus norvegicus [7]) was “Active”, the Ki [8] was 20 nM and the Ratio Ki (Homo sapiens [9]) was 10. The Emax [10] was -51% and the Occ (Rattus norvegicus [11]) was 40%.
